Eleven compounds from ChEMBL document CHEMBL1201862, “PubChem BioAssay data set” (2004) can be followed below.

Molecules are shown by their SMILES.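 Method: 48-hour compound exposure of cells in 96-well plates, five concentrations, linear interpolation of endpoints. GI50: concentration for 50% inhibition of growth.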 Activity calls are given as the source filed them. Cut-off read from the data, not from the text of the source: active = GI50 up to about 1.1 µM and inactive = higher. A value given as a limit tells only on which side of the number the result lay.

Among the test systems are BT-549; CAKI-1; HCC 2998; HCT-15; HL-60; HOP-62; K562; LOX IMVI; MDA-MB-231; NCI-H226; NCI-H23; NCI-H460; NCI-H522; OVCAR-3; SK-MEL-28; SK-OV-3; SNB-19; SR; TK-10; UACC-257.
Holding throughout (experiment): NCI tumour cell line growth inhibition, 48 h

In the case of `COc1ccc2c(c1)C(=O)C(=O)c1cc(O)c(OC)c(OC)c1-2`, the GI50 is 0.718 µM (active) in the assay on BT-549; 0.918 µM (active) in the assay on CAKI-1; 4.55 µM (inactive) in the assay on HCC 2998; 0.91 µM with HCT-15; 0.104 µM (active) with HL-60; 0.845 µM (active) in the assay with HOP-62. For the same compound, the GI50 with K562 is 0.838 µM (active); in the assay with LOX IMVI, 0.883 µM (active); in the assay with MDA-MB-231, 0.957 µM (active); with NCI-H226, 5.64 µM (inactive); in the assay on NCI-H23 it was 0.889 µM (active); in the assay with NCI-H460 it was 3.02 µM (inactive). Besides, the GI50 in the assay with NCI-H522 is 0.927 µM (active); with OVCAR-3, 0.946 µM (active); in the assay with SK-MEL-28 it was 0.845 µM (active); with SK-OV-3, 1.5 µM (inactive); in the assay on SNB-19 it was 1.01 µM (active); with SR, 0.818 µM (active). Further, the results for the GI50 in the assay with TK-10 and in the assay on UACC-257 were 1.01 µM (active) and 0.91 µM (active), respectively.

`Cc1cccc(C(C)(C)C)c1NC(=O)C(C#N)C1=C(Cl)C(=O)c2ccccc2C1=O` (stereo not given): the GI50 with BT-549 was 14.3 µM (inactive); in the assay with CAKI-1 it was 16.7 µM (inactive); in the assay with HCC 2998, 15.7 µM (inactive); with HL-60, 2.03 µM (inactive); in the assay on HOP-62, 17.7 µM (inactive); with K562, 3.05 µM (inactive). Further, the GI50 was 16.3 µM (inactive) with LOX IMVI; 14 µM (inactive) in the assay on MDA-MB-231; 9.66 µM (inactive) with NCI-H226; 15.8 µM (inactive) in the assay on NCI-H23; 19.2 µM (inactive) in the assay on NCI-H460; 13.8 µM (inactive) with NCI-H522. Also, the GI50 in the assay with OVCAR-3 is 15.7 µM (inactive); in the assay with SK-MEL-28, 16.9 µM (inactive); in the assay with SK-OV-3, 15.8 µM (inactive); in the assay on SNB-19, 18.3 µM (inactive); in the assay on SR it was 3.38 µM (inactive); in the assay on TK-10, 19.1 µM (inactive). Moreover, the GI50 in the assay with UACC-257 is 15.6 µM (inactive).

As to `CC1(C)CN=C(c2ccc3ccccc3c2O)N1`, the GI50 in the assay with BT-549 is > 100 µM (inactive); in the assay on CAKI-1 it was > 100 µM (inactive); in the assay with HCC 2998, > 100 µM (inactive); in the assay with HCT-15 it was above 100 µM; with HL-60, > 100 µM (inactive); in the assay with HOP-62, > 100 µM (inactive). The GI50 was > 100 µM (inactive) in the assay with K562; > 100 µM (inactive) in the assay on LOX IMVI; > 100 µM (inactive) with MDA-MB-231; > 100 µM (inactive) with NCI-H23; > 100 µM (inactive) with NCI-H460; 22.2 µM (inactive) in the assay with OVCAR-3. For the same compound, the GI50 in the assay on SK-MEL-28, with SNB-19, in the assay with SR, in the assay with TK-10 and in the assay with UACC-257 was > 100 µM (inactive) throughout.

Take `CC(C#N)(c1ccccc1)N(CCc1ccccc1)C(=O)Oc1ccccc1` (stereo not given): the GI50 in the assay with BT-549 is > 100 µM (inactive); with CAKI-1, > 100 µM (inactive); in the assay on HCC 2998 it was > 100 µM (inactive); in the assay on HCT-15, above 100 µM; with HL-60, > 100 µM (inactive); in the assay on HOP-62, 50.2 µM (inactive). In addition, the GI50 in the assay with K562 is > 100 µM (inactive); in the assay on LOX IMVI, > 100 µM (inactive); in the assay on MDA-MB-231, > 100 µM (inactive); with NCI-H226, 38.5 µM (inactive); in the assay with NCI-H23, > 100 µM (inactive); in the assay on NCI-H522, > 100 µM (inactive). Moreover, the GI50 is > 100 µM (inactive) in the assay on OVCAR-3; > 100 µM (inactive) in the assay on SK-MEL-28; > 100 µM (inactive) in the assay with SK-OV-3; 44.2 µM (inactive) with SNB-19; > 100 µM (inactive) in the assay with SR; > 100 µM (inactive) in the assay with TK-10. The GI50 in the assay on UACC-257 is > 100 µM (inactive).

In the case of `O=C1c2c(Br)sc(Br)c2[C@H]2NC(=S)O[C@@H]12`, the GI50 with BT-549 is 16.5 µM (inactive); in the assay with CAKI-1, 11.8 µM (inactive); in the assay with HCC 2998, 20.5 µM (inactive); in the assay on HCT-15, 4.18 µM; with HOP-62, 18 µM (inactive); in the assay with K562 it was 2.98 µM (inactive). For the same compound, the GI50 with LOX IMVI is 13.9 µM (inactive); in the assay on MDA-MB-231, 17.9 µM (inactive); in the assay with NCI-H226 it was 20.7 µM (inactive); in the assay with NCI-H23, 14.8 µM (inactive); in the assay with NCI-H460 it was 18.6 µM (inactive); with NCI-H522, 1.86 µM (inactive). Further, the GI50 in the assay on OVCAR-3 is 7.94 µM (inactive); in the assay with SK-MEL-28, 13.2 µM (inactive); in the assay with SK-OV-3 it was 18.7 µM (inactive); with SNB-19, 21.7 µM (inactive); in the assay with SR, 2.41 µM (inactive); with TK-10, 29.6 µM (inactive). In addition, the GI50 with UACC-257 was 16.8 µM (inactive).

With `COc1ccc(Cc2cc(Cc3ccc(OC)cc3)cc(Cc3ccc(OC)cc3)c2)cc1`, the GI50 in the assay with BT-549 was > 100 µM (inactive); in the assay with HCC 2998, > 100 µM (inactive); in the assay on HCT-15 it was above 100 µM; with HL-60, > 100 µM (inactive); in the assay with HOP-62, > 100 µM (inactive); in the assay on K562, > 100 µM (inactive). Besides, the GI50 in the assay on LOX IMVI, in the assay on MDA-MB-231, in the assay with NCI-H226, with NCI-H460, with NCI-H522 and with OVCAR-3 was > 100 µM (inactive) in each case. Also, the GI50 was > 100 µM (inactive) with SK-MEL-28; > 100 µM (inactive) with SK-OV-3; > 100 µM (inactive) in the assay with SNB-19; 89.5 µM (inactive) in the assay on SR; > 100 µM (inactive) in the assay with TK-10; > 100 µM (inactive) in the assay on UACC-257.

In the case of `COc1ccc(/C=C/C2=NN(c3cccc(S(=O)(=O)O)c3)C3(C2)SCC(=O)N3c2nc3ccccc3s2)cc1` (stereo not given), the GI50 in the assay on BT-549 is 56.1 µM (inactive); with CAKI-1, > 100 µM (inactive); in the assay on HCC 2998, > 100 µM (inactive); in the assay with HCT-15, 85.9 µM; in the assay on HL-60, > 100 µM (inactive); with K562, 31.3 µM (inactive). The GI50 is 33.1 µM (inactive) in the assay on LOX IMVI; 67 µM (inactive) with MDA-MB-231; 24.6 µM (inactive) with NCI-H226; 40.1 µM (inactive) in the assay with NCI-H23; 50.7 µM (inactive) with NCI-H460; 35.2 µM (inactive) in the assay on NCI-H522. The GI50 in the assay on SK-MEL-28 is > 100 µM (inactive); with SNB-19 it was 97.1 µM (inactive); with SR, 19.5 µM (inactive); in the assay on TK-10 it was 86.3 µM (inactive); in the assay with UACC-257, 83.8 µM (inactive).

For the compound `Cc1nn(C(=O)Cc2ccccc2)c2c1C(c1ccccc1O)SC(=N)N2` (stereo not given), the GI50 in the assay with BT-549 was > 100 µM (inactive); with CAKI-1, > 100 µM (inactive); in the assay on HCC 2998, > 100 µM (inactive); in the assay with HCT-15, above 100 µM; with HL-60, > 100 µM (inactive); in the assay with HOP-62 it was > 100 µM (inactive). The GI50 in the assay on K562, with LOX IMVI, in the assay on MDA-MB-231, in the assay with NCI-H226, in the assay with NCI-H23 and in the assay with NCI-H460 was > 100 µM (inactive) in each case. The GI50 in the assay on NCI-H522, with SK-MEL-28, in the assay with SK-OV-3, with SNB-19, in the assay on SR and in the assay with TK-10 was > 100 µM (inactive) in each case. Further, the GI50 in the assay with UACC-257 was > 100 µM (inactive).

For `C[C@@H](c1ccccc1)n1c(N)c(-c2ccccn2)c2ccc([N+](=O)[O-])cc2c1=O`, the GI50 in the assay on BT-549 was 44.1 µM (inactive); with CAKI-1 it was 51.8 µM (inactive); in the assay with HCC 2998, > 100 µM (inactive); in the assay with HCT-15, 86.1 µM; with HL-60 it was 52.4 µM (inactive); with LOX IMVI, > 100 µM (inactive). Besides, the GI50 with MDA-MB-231 is 86.3 µM (inactive); in the assay on NCI-H226, 36.6 µM (inactive); in the assay with NCI-H23, 54.6 µM (inactive); with NCI-H460, 43.1 µM (inactive); in the assay with NCI-H522, 48.2 µM (inactive); in the assay with SK-MEL-28, > 100 µM (inactive). Also, the GI50 is 35.2 µM (inactive) in the assay with SNB-19, 32.6 µM (inactive) in the assay with SR, 31.2 µM (inactive) in the assay with TK-10 and 22.2 µM (inactive) with UACC-257.

As for `COC(=O)c1ccc(/C=C/c2cc(O)ccc2O)cc1`, the GI50 was 1.11 µM (active) in the assay on BT-549; 2.43 µM (inactive) in the assay with CAKI-1; 20 µM (inactive) in the assay on HCC 2998; 3.01 µM in the assay on HCT-15; 0.269 µM (active) in the assay with HL-60; 27.2 µM (inactive) in the assay with HOP-62. The GI50 with K562 was 1.04 µM (active); in the assay on LOX IMVI it was 2.24 µM (inactive); in the assay on MDA-MB-231, 2.74 µM (inactive); in the assay on NCI-H226, 12.6 µM (inactive); in the assay on NCI-H23, 4.39 µM (inactive); with NCI-H460 it was 8.45 µM (inactive). Moreover, the GI50 in the assay with NCI-H522 was 0.194 µM (active); in the assay with OVCAR-3, 1.18 µM (inactive); with SK-MEL-28, 13.9 µM (inactive); in the assay on SNB-19, 33.3 µM (inactive); in the assay with SR, 0.787 µM (active); in the assay with TK-10, 8.43 µM (inactive). The GI50 with UACC-257 was 6.27 µM (inactive).

Consider `SC1=NNC2(C(Cl)=N1)c1ccccc1-c1ccccc12`, for which the GI50 in the assay with BT-549 was > 10 µM (inactive); with CAKI-1, > 10 µM (inactive); in the assay with HCC 2998 it was > 10 µM (inactive); in the assay on HCT-15, above 10 µM; in the assay on HL-60, > 10 µM (inactive); in the assay on HOP-62 it was > 10 µM (inactive). The GI50 in the assay on K562, in the assay on LOX IMVI, in the assay with MDA-MB-231, in the assay with NCI-H226, in the assay with NCI-H23 and with NCI-H460 was > 10 µM (inactive) each time. The GI50 with SK-MEL-28, in the assay on SK-OV-3, in the assay with SR, in the assay with TK-10 and in the assay with UACC-257 was > 10 µM (inactive) in each case.
